Experiment: Phase 1 first-in-human single ascending dose pharmacokinetic study (Pharmacokinetic Study 1)
Format: in vivo
Conditions: after single oral 250 mg or 500 mg dose of Example 4—Prodrug; healthy adult subjects
Experimental: Evaluate the PK profile of Example 4, which is a prodrug of (5-{3-amino-5-[4-(trifluoromethoxy)benzene-1-sulfonyl]pyridin-2-yl}-1,3,4-oxadiazol-2-yl)methanol, in healthy human adult subjects.
Two open label Phase 1, first in human studies in adult healthy subjects were conducted to evaluate the safety, tolerability, and pharmacokinetics of single oral doses of Example 1 administered as an oral suspension and prodrug Example 4 capsule, respectively. Subjects were screened and enrolled based on pre-specified criteria for inclusion and exclusion. The safety in subjects was determined by clinical evaluation and by monitoring of laboratory parameters. Blood samples were longitudinally collected at pre-specified time points following the administration of Example 1 or Example 4—Prodrug to measure the plasma concentrations of study drug and determine the pharmacokinetics of Example 1 and Example 4—Prodrug.
For this study the inclusion criteria includes the following: • 1. […]
Plasma concentrations of Example 1 and Example 4—Prodrug were determined using validated methods. The values for the pharmacokinetic parameters of Example 1 or Example 4—Prodrug were determined using noncompartmental methods with WinNonlin Phoenix 8.1.

For `CC(C)[C@H](N)C(=O)OCc1nnc(-c2ncc(S(=O)(=O)c3ccc(OC(F)(F)F)cc3)cc2N)o1` [Example 4, (5-{3-amino-5-[4-(trifluoromethoxy)benzene-1-sulfonyl]pyridin-2-yl}-1,3,4-oxadiazol-2-yl)methyl (2S)-2-amino-3-methylbutanoate], the “Plasma concentrations of intact Example 4—Prodrug” value was “no quantifiable plasma concentrations”.

Reference: patent publication US11345691B2, “Prodrug modulators of the cystic fibrosis transmembrane conductance regulator protein and methods of use” (AbbVie Global Enterprises Ltd., priority 2019, dated 2022)
